Experimental data reported in US20180215727A1, “LYSYL OXIDASE-LIKE 2 INHIBITORS AND USES THEREOF” (PharmAkea, Inc., priority 2015, published 2018).
Counter-ions that a name gives are not always drawn.

What follows are molecules tested against T1, human LOXL2 (Homo sapiens, UniProt Q9Y4K0) (assay: Human LOXL2 Amine Oxidase Activity Assay (Amplex Red fluorescence)). Details: concentrated conditioned media from CHO cells stably expressing human LOXL2, test compound incubated 2 h at 37° C., pH8, DAP substrate.
T1 construct: expressed in transfected cells; secreted protein in 10-20x concentrated conditioned media
T1 sequence (Q9Y4K0 26-774): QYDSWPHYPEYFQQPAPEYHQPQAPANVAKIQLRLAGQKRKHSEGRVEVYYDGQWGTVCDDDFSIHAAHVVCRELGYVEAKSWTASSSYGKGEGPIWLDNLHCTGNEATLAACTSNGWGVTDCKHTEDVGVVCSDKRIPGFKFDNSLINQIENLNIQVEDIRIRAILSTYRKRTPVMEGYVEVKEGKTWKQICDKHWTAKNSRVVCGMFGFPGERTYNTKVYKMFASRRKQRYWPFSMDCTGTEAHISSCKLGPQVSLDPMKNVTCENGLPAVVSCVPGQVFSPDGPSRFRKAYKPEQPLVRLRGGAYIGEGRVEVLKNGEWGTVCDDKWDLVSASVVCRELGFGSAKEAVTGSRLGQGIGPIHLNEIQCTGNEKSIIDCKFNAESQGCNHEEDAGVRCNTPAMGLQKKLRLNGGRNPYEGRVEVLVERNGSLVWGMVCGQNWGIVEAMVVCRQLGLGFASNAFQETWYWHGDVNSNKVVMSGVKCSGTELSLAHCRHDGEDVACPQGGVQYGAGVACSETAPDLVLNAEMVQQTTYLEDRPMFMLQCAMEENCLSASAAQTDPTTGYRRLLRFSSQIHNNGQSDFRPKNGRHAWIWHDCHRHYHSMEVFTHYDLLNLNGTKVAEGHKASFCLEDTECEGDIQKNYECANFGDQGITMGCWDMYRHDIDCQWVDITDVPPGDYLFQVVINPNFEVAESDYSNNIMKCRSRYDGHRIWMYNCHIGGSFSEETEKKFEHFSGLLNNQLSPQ
Format: biochemical
Protocol: Example B-1: Human LOXL2 Amine Oxidase Activity Assay
LOXL2 amine oxidase activity is evaluated by measuring Amplex Red fluorescence using 10-20× concentrated conditioned media from CHO cells stably expressing human LOXL2. To assay for amine oxidase activity, 10 μL of the concentrated conditioned media is incubated with 2 μL of test compound in DMSO and 73 μL Assay Buffer (50 mM Borate Buffer, pH8) for 2 h at 37° C. After the 2 h incubation, 5 μl of 10 mM 1,5-Diaminopentane (DAP) diluted in Assay Buffer and 10 μl of Amplex Red Mix (8.5 μl Assay Buffer+0.5 μl of 10 mM Amplex Red+1 μl of 500 U/ml Horseradish Peroxidase) are added and the plate mixed and immediately placed on the FlexStaion for fluorescence measurements. Fluorescence is read in kinetic mode every 2 min for 1 hour at excitation=544 and emission=590. The amine oxidase activity is calculated from the slope of the linear portion of the curve.

Compound | IC50 [nM]
NCc1cc(=O)c2cc(-c3cccnc3)ccc2o1 [Compound 1-8, 2-(Aminomethyl)-6-(pyridin-3-yl)-4H-chromen-4-one hydrochloride] | < 300
Cn1cc(-c2ccc3c(=O)cc(CN)oc3c2)nn1 [Compound 1-39, 2-(Aminomethyl)-7-(1-methyl-1H-1,2,3-triazol-4-yl)-4H-chromen-4-one hydrochloride] | < 300
C#CCOc1ccc2c(=O)cc(CN)oc2c1 [Compound 1-45, 2-(aminomethyl)-7-(prop-2-yn-1-yloxy)-4H-chromen-4-one hydrochloride] | < 300
NCc1cc(=O)c2cc(C(=O)N3CCCCC3)ccc2o1 [Compound 1-19, 2-(Aminomethyl)-6-(piperidine-1-carbonyl)-4H-chromen-4-one hydrochloride] | 300 to 1000
CN(C)C(=O)COc1ccc2c(=O)cc(CN)oc2c1 [Compound 1-32, 2-((2-(Aminomethyl)-4-oxo-4H-chromen-7-yl)oxy)-N,N-dimethylacetamide hydrochloride] | 300 to 1000
NCc1cc(=O)c2ccc(-n3cccn3)cc2o1 [Compound 1-11, 2-(Aminomethyl)-7-(1H-pyrazol-1-yl)-4H-chromen-4-one hydrochloride] | < 300
NCc1cc(=O)c2cccc(OCCOc3ccccc3)c2o1 [Compound 1-56, 2-(Aminomethyl)-8-(2-phenoxyethoxy)-4H-chromen-4-one hydrochloride] | > 1000
CS(=O)(=O)CCNC(=O)c1ccc2oc(CN)cc(=O)c2c1 [Compound 1-26, 2-(Aminomethyl)-N-(2-(methylsulfonyl)ethyl)-4-oxo-4H-chromene-6-carboxamide hydrochloride] | 300 to 1000
C#Cc1ccc2c(=O)cc(CN)oc2c1 [Compound 1-31, 2-(aminomethyl)-7-ethynyl-4H-chromen-4-one hydrochloride] | 300 to 1000
NCc1cc(=O)c2cc(-c3ccccn3)ccc2o1 [Compound 1-7, 2-(Aminomethyl)-6-(pyridin-2-yl)-4H-chromen-4-one hydrochloride] | < 300
NCc1cc(=O)c2ccc(N3CCCc4ccccc43)cc2o1 [Compound 1-42, 2-(Aminomethyl)-7-(3,4-dihydroquinolin-1(2H)-yl)-4H-chromen-4-one hydrochloride] | < 300
NCc1cc(=O)c2ccc(OCc3cccc(C(=O)Nc4ccccc4)c3)cc2o1 [Compound 1-48, 3-(((2-(Aminomethyl)-4-oxo-4H-chromen-7-yl)oxy)methyl)-N-phenylbenzamide hydrochloride] | < 300
COc1ccc2c(=O)cc(CN)oc2c1 [Compound 1-28, 2-(Aminomethyl)-7-methoxy-4H-chromen-4-one hydrochloride] | < 300
NCc1cc(=O)c2cc(C(=O)NCCS(N)(=O)=O)ccc2o1 [Compound 1-22, 2-(Aminomethyl)-4-oxo-N-(2-sulfamoylethyl)-4H-chromene-6-carboxamide hydrochloride] | 300 to 1000
NCc1cc(=O)c2ccc(-c3cn(-c4ccccc4)nn3)cc2o1 [Compound 1-33, 2-(Aminomethyl)-7-(1-phenyl-1H-1,2,3-triazol-4-yl)-4H-chromen-4-one hydrochloride] | < 300
CN(C)C(=O)COc1ccc2oc(CN)cc(=O)c2c1 [Compound 1-35, 2-((2-(Aminomethyl)-4-oxo-4H-chromen-6-yl)oxy)-N,N-dimethylacetamide hydrochloride] | 300 to 1000
NCc1cc(=O)c2cc(C(=O)N3CC[C@@H](N)C3)ccc2o1 [Compound 1-23, (R)-2-(Aminomethyl)-6-(3-aminopyrrolidine-1-carbonyl)-4H-chromen-4-one dihydrochloride] | 300 to 1000
C=C(C)C#Cc1ccc2oc(CN)cc(=O)c2c1 [Compound 1-5, 2-(Aminomethyl)-6-(3-methylbut-3-en-1-yn-1-yl)-4H-chromen-4-one trifluoroacetate] | < 300
NCc1cc(=O)c2cc(OCc3ccccc3)ccc2o1 [Compound 1-30, 2-(Aminomethyl)-6-(benzyloxy)-4H-chromen-4-one hydrochloride] | < 300
COc1ccc2oc(CN)cc(=O)c2c1 [Compound 1-27, 2-(Aminomethyl)-6-methoxy-4H-chromen-4-one hydrochloride] | < 300
NCc1cc(=O)c2ccc(Br)cc2o1 [Compound 1-2, 2-(Aminomethyl)-7-bromo-4H-chromen-4-one hydrochloride] | < 300
NCc1cc(=O)c2ccc(OCCOc3ccccc3)cc2o1 [Compound 1-46, 2-(Aminomethyl)-7-(2-phenoxyethoxy)-4H-chromen-4-one hydrochloride] | < 300
COC(=O)[C@H]1CCN(C(=O)c2ccc3oc(CN)cc(=O)c3c2)C1 [Compound 1-36, Methyl (S)-1-(2-(aminomethyl)-4-oxo-4H-chromene-6-carbonyl)pyrrolidine-3-carboxylate hydrochloride] | > 1000
NCc1cc(=O)c2cc(-c3cnc4ccccc4c3)ccc2o1 [Compound 1-9, 2-(Aminomethyl)-6-(quinolin-3-yl)-4H-chromen-4-one hydrochloride] | < 300
NCc1cc(=O)c2cc(-c3cn(-c4ccccc4)nn3)ccc2o1 [Compound 1-14, 2-(Aminomethyl)-6-(1-phenyl-1H-1,2,3-triazol-4-yl)-4H-chromen-4-one hydrochloride] | < 300
NCc1cc(=O)c2cc(-n3cccn3)ccc2o1 [Compound 1-10, 2-(Aminomethyl)-6-(1H-pyrazol-1-yl)-4H-chromen-4-one hydrochloride] | < 300

Results, then the molecule that gave them:

IC50 [nM] | Compound
300 to 1000 | NCc1cc(=O)c2cc(C(=O)NCCO)ccc2o1 [Compound 1-59, 2-(Aminomethyl)-N-(2-hydroxyethyl)-4-oxo-4H-chromene-6-carboxamide hydrochloride]
< 300 | NCc1cc(=O)c2ccc(OCc3ccc4ccccc4n3)cc2o1 [Compound 1-65, 2-(Aminomethyl)-7-(quinolin-2-ylmethoxy)-4H-chromen-4-one hydrochloride]
< 300 | NCc1cc(=O)c2ccc(Nc3cnn(-c4ccccc4)c3)cc2o1 [Compound 1-70, 2-(Aminomethyl)-7-((1-phenyl-1H-pyrazol-4-yl)amino)-4H-chromen-4-one hydrochloride]
< 300 | COc1cc2c(=O)cc(CN)oc2cc1OCc1ccccc1 [Compound 1-69, 2-(Aminomethyl)-7-(benzyloxy)-6-methoxy-4H-chromen-4-one hydrochloride]
< 300 | NCc1cc(=O)c2ccc(OCC#Cc3ccccc3)cc2o1 [Compound 1-63, 2-(Aminomethyl)-7-((3-phenylprop-2-yn-1-yl)oxy)-4H-chromen-4-one hydrochloride]
300 to 1000 | NCc1cc(=O)c2cc(C(=O)N3C[C@@H](O)[C@H](F)C3)ccc2o1 [Compound 1-61, 2-(Aminomethyl)-6-((3R,4R)-3-fluoro-4-hydroxypyrrolidine-1-carbonyl)-4H-chromen-4-one hydrochloride]
> 1000 | NCc1cc(=O)c2cccc(OCc3cccc(C(=O)Nc4ccccc4)c3)c2o1 [Compound 1-58, 3-(((2-(Aminomethyl)-4-oxo-4H-chromen-8-yl)oxy)methyl)-N-phenylbenzamide hydrochloride]
300 to 1000 | NCc1cc(=O)c2cc(C(=O)N3C[C@H](O)[C@@H](F)C3)ccc2o1 [Compound 1-60, 2-(Aminomethyl)-6-((3S,4S)-3-fluoro-4-hydroxypyrrolidine-1-carbonyl)-4H-chromen-4-one hydrochloride]
300 to 1000 | NCc1cc(=O)c2cccc(OCCc3ccccc3)c2o1 [Compound 1-55, 2-(Aminomethyl)-8-phenethoxy-4H-chromen-4-one hydrochloride]
< 300 | NCc1cc(=O)c2ccc(OCc3cc4ccccc4s3)cc2o1 [Compound 1-66, 2-(Aminomethyl)-7-(benzo[b]thiophen-2-ylmethoxy)-4H-chromen-4-one hydrochloride]
< 300 | NCc1cc(=O)c2ccc(Oc3cccc(C(F)(F)F)c3)cc2o1 [Compound 1-67, 2-(Aminomethyl)-7-(3-(trifluoromethyl)phenoxy)-4H-chromen-4-one hydrochloride]
300 to 1000 | C#CCOc1cccc2c(=O)cc(CN)oc12 [Compound 1-53, 2-(Aminomethyl)-8-(prop-2-yn-1-yloxy)-4H-chromen-4-one hydrochloride]
